# Publication PMC10660337, “Mutate and Conjugate: A Method to Enable Rapid In-Cell Target Validation” (ACS Chemical Biology, 2023)
# Values joined by “and” are separate entries in the source; they are usually repeats but may differ in a detail not shown here. Identical values can stand only once.
# Columns and labels:
# [1] = molecular target: T1, BRD4(1)^L94C (Homo sapiens, UniProt O60885, L94C); test: Protein LCMS labeling assay 1; type: binding
# T1 construct: Characterization of His6-BRD4(1)L94C; made in house; host or cells: E. coli BL21 (DE3)
# Protocol: The resulting library of 22 fragments was screened for BRD4(1)^L94C binding at a concentration of 50 μM using a protein LCMS assay (referred to as “labeling assay 1”). […] To assess the selectivity of the fragments for the labeling of C94, hits were also screened against BRD4(1)^WT under the same conditions. […] The acrylamide-based fragment, 12, labeled 98% of BRD4(1)^L94C after 4 h. While 95% of the protein was labeled once, 3% of the protein was labeled twice (Figure 5D). […] Fragment 14, designed by appending a β-dimethylaminomethyl acrylamide to the structure of 12, led to 74% of singly labeled BRD4(1)^L94C after 4 h with no labeling of BRD4(1)^WT observed (Table 1 and Figure 5E). […] However, only 9.9% of labeled BRD4(1)^L94C was observed, substantially lower than the 56% labeling observed for the corresponding 3-methyl regioisomer 10 (Table 1). […]
# Assays were performed in 1.5 mL Eppendorf tubes at 37 °C and gently shaken, unless otherwise stated.
# Experiments were performed in a protein LCMS assay buffer, with 10 µM protein, and 50 µM of the desired compound with a final DMSO concentration of 0.5% (Table S16). Time points were taken at 0, 1 and 4 h, unless otherwise stated, where a 20 µL sample of the reaction mix was taken, diluted with 100 µL Milli-Q water, and flash frozen. Samples were thawed immediately prior to LCMS analysis on a Waters Xevo G2-S system (Waters) fitted with a ProSwift™ RP-2H PSDVB Reversed Phase HPLC Column (Thermofisher). Data was analysed and processed using MassLynx. The total ion chromatograms (TIC) were extracted (region containing protein) and the summed scans were deconvoluted (using MaxEnt). Covalent labeling was calculated using intensities of the unlabeled and labeled protein (Equation 1). Figures were made using GraphPad Prism 7.0.
# Table S16. Buffer composition for protein LCMS.
# Buffer Reagent Composition Amount per 1 L
# Protein LCMS Assay Buffer HEPES 25 mM 6.0 g
# Protein Labelling = Intensity of Labelled Peak × 100
# [2] = test system: T2, BRD4(1)^WT transiently expressed in HEK293T cells; test: In-cell labeling by clickable probes, in-gel fluorescence; type: cell-based, human; details: 10 μM probe, 1 h
# T2 construct: the first bromodomain of BRD4 [BRD4(1)]; StrepII; expressed in transfected cells; host or cells: HEK293T
# Protocol: To evaluate proteome-wide selectivity of the clickable probes, HEK293T cells transiently expressing BRD4(1)^L94C or BRD4(1)^WT were incubated with 10 μM of probes 28–30 and 42 for 1 h before the cells were lysed and the CuAAC reaction with TAMRA-PEG3-azide was conducted (Figure 7A). […]
# reaction mix was taken and 8 µL of Lamelli buffer added, and the samples denatured by heating at 95 °C for 10 min. Samples were separated by gel electrophoresis on NuPAGE™ 4–12%, Bis-Tris precast polyacrylamide gels (Thermofisher). Following electrophoresis, gels were stained for 15 min with InstantBlueTM Coomasie® stain (Abcam), destained, and imaged using Bio-rad molecular imager.
# Bio-rad Image Lab 6.1 was used to process the data.
# In-cell target engagement
# In-cell labeling by clickable probes
# Transfected HEK293T cells at ~90% confluency were incubated for 1 h with a DMSO control (0.5% DMSO final concentration) or a click probe (10 µM, 0.5% DMSO final concentration) diluted in Opti- […]
# Cells were then harvested and lysed using the previously described protocol above. The resulting cell lysates were diluted to 2 mg/mL using the previously described protocol above.
# Cell lysates (50 µL) were then incubated with TAMRA-PEG3-Azide (200 µM), TCEP·HCl (2 mM), TBTA (200 µM), and CuSO4 (2 mM), for 1 h at rt in the dark. Samples were then prepared and separated by gel electrophoresis using the previously described protocol above.
# Gels were imaged for fluorescence using Bio-rad molecular imager and then stained for 15 min with InstantBlueTM Coomasie® stain (Abcam), destained, and imaged using Bio-rad molecular imager.
# Typically, the very bottom of the gel was removed prior to imaging due to residual, unreacted, TAMRA-PEG3-Azide, which would cause oversaturation and poor image quality. […]
# MEM media. Cells were then harvested and lysed using the previously described protocol above. […]
# [3] = 50 μM compound, 10 µM protein, 37 °C, mean of three ± s.e.m., ND = not detectable
"Labeled Protein (%) L94C 1 h [1, 3]","Second labeling event, share of total labeled protein ([1]; labeling assay 1, 50 μM) [%]","Labeled Protein (%) L94C 4 h ([1]; 50 μM compound, 10 µM protein, 37 °C, 4 h, mean of three ± s.e.m., ND = not detectable)",Compound,In-cell labeling of BRD4(1)^WT (fluorescent band ∼49 kDa) [2]
96 ± 0.2%,3,,C#CCOc1ccc(-c2c(C)noc2NC(=O)C=C)cc1 [Compound 30],not visible
37% and 37 ± 1.2%,,82% and 82 ± 1.1%,C#CCOc1cc(NC(=O)C=C)ccc1N1CCCC1=O [Compound 42],
